According to PubChem BioAssay (NCI):
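Growth conditions: 96-well plates. Treatment: test compound, 48 hours, 5 concentrations. Analysis: linear interpolation between bracketing concentrations; unreached endpoints set to highest concentration. TGI denotes the concentration required for complete inhibition of growth.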

Tests used:
Assay in all cases: NCI tumour cell line growth inhibition, 48 h
DLD-1 colon = test system: DLD-1 colon
XF 498 CNS = test system: XF 498 CNS
M19-MEL melanoma = test system: M19-MEL melanoma
DMS 114 small cell lung = test system: DMS 114 small cell lung
HOP-18 NSCLC = test system: HOP-18 NSCLC
LXFL 529 NSCLC = test system: LXFL 529 NSCLC
P388/ADR leukemia = test system: P388/ADR leukemia
SN12K1 renal = test system: SN12K1 renal
P388 leukemia = test system: P388 leukemia

Measured: TGI

O=c1[nH][nH]c(=O)[nH]1
> 100 µM: DLD-1 colon | XF 498 CNS | M19-MEL melanoma

O=S1(=O)NNC(=NCc2ccc(Cl)c(Cl)c2)c2ccccc21
> 100 µM: DLD-1 colon | DMS 114 small cell lung | HOP-18 NSCLC | M19-MEL melanoma | LXFL 529 NSCLC

COc1cc2cc[n+](C)c(Cc3ccccc3)c2cc1OC
> 100 µM: DMS 114 small cell lung | HOP-18 NSCLC | M19-MEL melanoma | LXFL 529 NSCLC

CNC(C)Cc1ccccc1O (centres undefined)
> 100 µM: DLD-1 colon | DMS 114 small cell lung | HOP-18 NSCLC | LXFL 529 NSCLC

Nc1ccc2c(c1)C1=NNC(=O)CC1C2 (centres undefined)
not listed: LXFL 529 NSCLC
> 100 µM: all other assays above

CC1SC(c2ccccc2)N(Nc2c3ccccc3nc3ccccc23)C1=O (centres undefined)
> 100 µM: DLD-1 colon | XF 498 CNS | DMS 114 small cell lung | M19-MEL melanoma | LXFL 529 NSCLC
